# In article doi:10.1101/2020.06.11.145995v1 (biorxiv, 2020):
# Read-outs that look alike come from different tables or passages of the source.
# Tests used:
# Assay in all cases: biochemical
# [1] = molecular target: ABL1(Y253F)-phosphorylated (Homo sapiens, UniProt P00519, Y253F)
# [2] = molecular target: ABL1(F317I)-phosphorylated (Homo sapiens, UniProt P00519, F317I)
# RIPK1 = RIPK1 (Homo sapiens, UniProt Q13546)
# OSR1 = OSR1 (Homo sapiens, UniProt O95747)
# TLK2 = TLK2 (Homo sapiens, UniProt Q86UE8)
# PRKR = PRKR (Homo sapiens, UniProt P19525)
# Sequence of PRKR (P19525 whole entry): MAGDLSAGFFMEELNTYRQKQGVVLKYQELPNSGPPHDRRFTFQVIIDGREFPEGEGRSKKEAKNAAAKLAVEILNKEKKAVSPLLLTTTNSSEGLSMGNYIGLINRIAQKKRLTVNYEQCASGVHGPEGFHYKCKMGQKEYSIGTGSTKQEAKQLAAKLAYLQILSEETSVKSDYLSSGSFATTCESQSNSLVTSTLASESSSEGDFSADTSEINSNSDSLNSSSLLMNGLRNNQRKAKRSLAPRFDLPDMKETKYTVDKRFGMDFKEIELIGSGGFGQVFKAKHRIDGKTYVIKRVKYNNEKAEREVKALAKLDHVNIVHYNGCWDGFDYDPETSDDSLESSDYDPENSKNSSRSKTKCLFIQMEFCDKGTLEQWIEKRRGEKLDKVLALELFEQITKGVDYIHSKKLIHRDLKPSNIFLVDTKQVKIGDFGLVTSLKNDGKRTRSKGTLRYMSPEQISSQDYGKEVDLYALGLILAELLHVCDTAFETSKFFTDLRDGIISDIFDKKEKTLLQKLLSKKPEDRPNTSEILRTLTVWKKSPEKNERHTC
# YANK1 = YANK1 (Homo sapiens, UniProt Q8WU08)
# PRKCD = PRKCD (Homo sapiens, UniProt Q05655)
# PIK3C2B = PIK3C2B (Homo sapiens, UniProt O00750)
# PAK6 = PAK6 (Homo sapiens, UniProt Q9NQU5)
# SRPK3 = SRPK3 (Homo sapiens, UniProt Q9UPE1)
# Sequence of SRPK3 (Q9UPE1 whole entry): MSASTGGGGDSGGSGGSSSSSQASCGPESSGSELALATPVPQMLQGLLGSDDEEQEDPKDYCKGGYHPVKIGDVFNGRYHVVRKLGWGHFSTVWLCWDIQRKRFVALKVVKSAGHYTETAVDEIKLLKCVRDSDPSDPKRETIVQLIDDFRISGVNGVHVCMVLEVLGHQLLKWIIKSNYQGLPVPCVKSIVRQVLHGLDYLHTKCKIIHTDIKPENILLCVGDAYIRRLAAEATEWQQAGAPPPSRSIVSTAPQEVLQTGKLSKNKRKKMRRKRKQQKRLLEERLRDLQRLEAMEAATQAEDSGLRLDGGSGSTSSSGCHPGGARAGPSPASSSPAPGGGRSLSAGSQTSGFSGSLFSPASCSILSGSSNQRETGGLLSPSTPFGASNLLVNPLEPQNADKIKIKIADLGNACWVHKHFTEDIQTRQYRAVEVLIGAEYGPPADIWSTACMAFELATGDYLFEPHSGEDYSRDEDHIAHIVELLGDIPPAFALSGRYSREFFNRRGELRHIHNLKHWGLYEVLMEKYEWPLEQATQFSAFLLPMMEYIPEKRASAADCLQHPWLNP
# NIM1 = NIM1 (Homo sapiens, UniProt Q8IY84)
# RIOK2 = RIOK2 (Homo sapiens, UniProt Q9BVS4)
# PAK4 = PAK4 (Homo sapiens, UniProt O96013)
# Sequence of PAK4 (O96013 whole entry): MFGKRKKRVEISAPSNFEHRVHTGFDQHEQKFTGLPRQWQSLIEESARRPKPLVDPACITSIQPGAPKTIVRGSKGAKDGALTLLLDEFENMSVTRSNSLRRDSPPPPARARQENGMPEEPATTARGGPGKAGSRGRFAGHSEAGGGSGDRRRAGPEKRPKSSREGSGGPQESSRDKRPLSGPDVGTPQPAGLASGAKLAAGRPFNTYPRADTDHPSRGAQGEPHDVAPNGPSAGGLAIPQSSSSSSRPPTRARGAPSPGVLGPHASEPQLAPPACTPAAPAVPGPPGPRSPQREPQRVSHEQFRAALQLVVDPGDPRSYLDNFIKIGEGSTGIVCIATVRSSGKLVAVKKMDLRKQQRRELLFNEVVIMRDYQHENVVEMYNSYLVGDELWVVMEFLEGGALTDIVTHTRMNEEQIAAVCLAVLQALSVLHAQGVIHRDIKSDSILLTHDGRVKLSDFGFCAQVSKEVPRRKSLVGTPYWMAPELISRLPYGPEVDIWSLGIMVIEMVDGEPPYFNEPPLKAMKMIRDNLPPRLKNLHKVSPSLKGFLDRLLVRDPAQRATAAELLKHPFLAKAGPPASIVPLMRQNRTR
# TGFBR2 = TGFBR2 (Homo sapiens, UniProt P37173)
# TYRO3 = TYRO3 (Homo sapiens, UniProt Q06418)
# SRMS = SRMS (Homo sapiens, UniProt Q9H3Y6)
# TNIK = TNIK (Homo sapiens, UniProt Q9UKE5)
# PHKG1 = PHKG1 (Homo sapiens, UniProt Q16816)
# S6K1 = S6K1 (Homo sapiens, UniProt P23443)
# Sequence of S6K1 (P23443 whole entry): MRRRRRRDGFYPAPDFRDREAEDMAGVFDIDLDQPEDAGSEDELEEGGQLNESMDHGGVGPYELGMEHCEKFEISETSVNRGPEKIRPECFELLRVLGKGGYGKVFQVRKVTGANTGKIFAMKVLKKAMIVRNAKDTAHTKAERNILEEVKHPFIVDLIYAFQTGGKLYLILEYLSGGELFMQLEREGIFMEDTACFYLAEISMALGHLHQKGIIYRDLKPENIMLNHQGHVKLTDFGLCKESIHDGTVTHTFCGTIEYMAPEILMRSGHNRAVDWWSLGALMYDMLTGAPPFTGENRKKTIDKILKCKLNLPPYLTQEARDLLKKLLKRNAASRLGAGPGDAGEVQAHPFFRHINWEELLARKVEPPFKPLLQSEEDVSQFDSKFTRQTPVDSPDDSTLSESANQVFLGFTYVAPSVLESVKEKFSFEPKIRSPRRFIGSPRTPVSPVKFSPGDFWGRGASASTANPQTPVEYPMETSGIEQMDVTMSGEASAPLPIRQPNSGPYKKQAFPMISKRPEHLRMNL
# RET(M918T) = RET(M918T) (Homo sapiens, UniProt P07949, M918T)
# Sequence of RET(M918T) (P07949 whole entry M918T): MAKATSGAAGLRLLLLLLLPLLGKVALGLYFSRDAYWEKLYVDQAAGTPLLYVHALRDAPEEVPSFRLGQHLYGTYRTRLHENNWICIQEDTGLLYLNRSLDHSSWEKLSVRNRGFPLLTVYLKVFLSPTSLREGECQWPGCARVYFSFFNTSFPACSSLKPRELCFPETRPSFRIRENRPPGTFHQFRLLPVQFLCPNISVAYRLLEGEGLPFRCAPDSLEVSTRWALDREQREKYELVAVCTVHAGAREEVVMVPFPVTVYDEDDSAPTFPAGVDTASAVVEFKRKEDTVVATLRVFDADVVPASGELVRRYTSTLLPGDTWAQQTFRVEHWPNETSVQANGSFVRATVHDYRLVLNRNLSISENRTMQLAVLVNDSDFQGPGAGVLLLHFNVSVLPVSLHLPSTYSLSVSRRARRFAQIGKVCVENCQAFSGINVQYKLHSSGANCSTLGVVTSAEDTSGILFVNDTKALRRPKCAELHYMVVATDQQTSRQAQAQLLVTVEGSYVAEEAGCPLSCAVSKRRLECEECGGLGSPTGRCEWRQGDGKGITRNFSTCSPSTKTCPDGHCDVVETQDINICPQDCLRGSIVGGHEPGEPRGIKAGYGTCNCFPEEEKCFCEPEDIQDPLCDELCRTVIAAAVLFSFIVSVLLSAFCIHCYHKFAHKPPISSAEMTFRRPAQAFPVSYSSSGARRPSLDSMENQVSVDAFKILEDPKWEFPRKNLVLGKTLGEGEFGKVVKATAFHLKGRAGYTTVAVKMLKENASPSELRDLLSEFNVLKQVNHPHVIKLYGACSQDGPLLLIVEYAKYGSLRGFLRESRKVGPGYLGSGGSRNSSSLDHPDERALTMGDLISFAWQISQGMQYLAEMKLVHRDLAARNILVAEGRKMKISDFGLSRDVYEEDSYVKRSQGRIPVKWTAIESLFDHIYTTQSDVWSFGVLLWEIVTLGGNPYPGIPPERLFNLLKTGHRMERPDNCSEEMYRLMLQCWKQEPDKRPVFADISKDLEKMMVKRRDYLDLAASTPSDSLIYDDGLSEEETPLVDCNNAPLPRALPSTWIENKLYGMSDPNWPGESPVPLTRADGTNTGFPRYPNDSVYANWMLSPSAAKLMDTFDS
# NEK4 = NEK4 (Homo sapiens, UniProt P51957)
# TNNI3K = TNNI3K (Homo sapiens, UniProt Q59H18)
# Sequence of TNNI3K (Q59H18 whole entry): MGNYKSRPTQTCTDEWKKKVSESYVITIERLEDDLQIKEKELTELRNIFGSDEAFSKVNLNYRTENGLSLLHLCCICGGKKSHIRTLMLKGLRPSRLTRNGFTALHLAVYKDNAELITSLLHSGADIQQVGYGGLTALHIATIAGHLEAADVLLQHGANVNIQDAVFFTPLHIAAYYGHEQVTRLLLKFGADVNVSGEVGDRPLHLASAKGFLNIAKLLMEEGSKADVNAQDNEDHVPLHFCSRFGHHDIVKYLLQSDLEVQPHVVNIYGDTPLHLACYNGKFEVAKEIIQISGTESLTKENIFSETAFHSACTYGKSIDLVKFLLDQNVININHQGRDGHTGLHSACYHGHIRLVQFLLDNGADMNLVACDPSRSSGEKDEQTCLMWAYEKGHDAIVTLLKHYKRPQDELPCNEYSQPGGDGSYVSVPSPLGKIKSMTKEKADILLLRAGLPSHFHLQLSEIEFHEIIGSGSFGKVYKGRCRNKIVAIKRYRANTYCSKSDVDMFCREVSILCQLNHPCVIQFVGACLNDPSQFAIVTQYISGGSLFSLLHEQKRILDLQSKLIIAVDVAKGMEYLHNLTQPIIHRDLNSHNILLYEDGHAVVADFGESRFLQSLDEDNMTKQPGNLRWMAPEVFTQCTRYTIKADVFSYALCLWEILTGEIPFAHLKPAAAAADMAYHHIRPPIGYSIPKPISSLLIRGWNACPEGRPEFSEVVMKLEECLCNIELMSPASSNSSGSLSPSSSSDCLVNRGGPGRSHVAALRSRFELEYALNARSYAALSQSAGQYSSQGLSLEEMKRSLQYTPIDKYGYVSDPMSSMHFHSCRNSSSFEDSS
# RIPK4 = RIPK4 (Homo sapiens, UniProt P57078)
# PAK7 = PAK7 (Homo sapiens, UniProt Q9P286)
# WEE1 = WEE1 (Homo sapiens, UniProt P30291)
# PHKG2 = PHKG2 (Homo sapiens, UniProt P15735)
# [3] = molecular target: ABL1(M351T)-phosphorylated (Homo sapiens, UniProt P00519, M351T)
# [4] = molecular target: ABL1(Q252H)-phosphorylated (Homo sapiens, UniProt P00519, Q252H)
# [5] = read-out: CPT-1-70-1 (1uM) % control
# [6] = read-out: CPT-1-70-1 (1μM) % control
# [7] = read-out: HYJ-2-002-1 (1uM) % control
# [8] = read-out: HYJ-2-002-1 (1μM) % control
# Sequence of RIPK1 (Q13546 whole entry): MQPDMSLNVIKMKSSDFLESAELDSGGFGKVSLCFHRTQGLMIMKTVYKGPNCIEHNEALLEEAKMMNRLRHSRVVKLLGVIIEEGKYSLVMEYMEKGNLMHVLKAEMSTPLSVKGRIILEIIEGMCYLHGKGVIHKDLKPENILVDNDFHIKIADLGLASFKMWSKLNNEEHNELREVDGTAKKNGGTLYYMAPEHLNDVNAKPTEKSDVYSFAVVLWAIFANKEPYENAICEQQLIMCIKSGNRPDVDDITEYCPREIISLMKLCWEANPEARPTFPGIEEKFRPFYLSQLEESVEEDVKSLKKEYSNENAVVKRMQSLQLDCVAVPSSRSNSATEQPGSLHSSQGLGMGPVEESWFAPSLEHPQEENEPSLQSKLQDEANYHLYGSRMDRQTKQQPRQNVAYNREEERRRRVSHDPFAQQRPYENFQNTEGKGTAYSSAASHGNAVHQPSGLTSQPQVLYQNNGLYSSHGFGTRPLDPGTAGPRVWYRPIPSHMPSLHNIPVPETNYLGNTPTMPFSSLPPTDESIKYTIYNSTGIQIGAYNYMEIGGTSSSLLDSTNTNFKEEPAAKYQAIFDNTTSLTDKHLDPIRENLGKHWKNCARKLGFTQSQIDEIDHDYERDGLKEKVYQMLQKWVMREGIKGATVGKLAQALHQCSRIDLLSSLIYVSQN
smiles,measurement,setting,value
CN1CCN(c2ccc(Nc3nc(Oc4ccc(NC(=O)CCl)cc4)c4cc[nH]c4n3)cc2)CC1 [CPT1-70-1],remaining activity at 1 µM,[1]; [5],100%
same,remaining activity at 1 µM,[2]; [5],100%
same,remaining activity at 1 µM,RIPK1; [6],0.15%
same,remaining activity at 1 µM,OSR1; [6],96%
same,remaining activity at 1 µM,TLK2; [6],100%
same,remaining activity at 1 µM,PRKR; [6],93%
same,remaining activity at 1 µM,YANK1; [6],100%
same,remaining activity at 1 µM,PRKCD; [6],100%
same,remaining activity at 1 µM,PIK3C2B; [6],100%
same,remaining activity at 1 µM,PAK6; [6],74%
same,remaining activity at 1 µM,SRPK3; [6],100%
same,remaining activity at 1 µM,NIM1; [6],100%
same,remaining activity at 1 µM,RIOK2; [6],5.2%
same,remaining activity at 1 µM,PAK4; [6],12%
same,remaining activity at 1 µM,TGFBR2; [6],100%
same,remaining activity at 1 µM,TYRO3; [6],100%
same,remaining activity at 1 µM,SRMS; [6],100%
same,remaining activity at 1 µM,TNIK; [6],20%
same,remaining activity at 1 µM,PHKG1; [6],100%
same,remaining activity at 1 µM,S6K1; [6],100%
same,remaining activity at 1 µM,RET(M918T); [6],13%
same,remaining activity at 1 µM,NEK4; [6],100%
same,remaining activity at 1 µM,TNNI3K; [6],100%
same,remaining activity at 1 µM,RIPK4; [6],100%
same,remaining activity at 1 µM,PAK7; [6],13%
same,remaining activity at 1 µM,WEE1; [6],88%
same,remaining activity at 1 µM,PHKG2; [6],72%
same,remaining activity at 1 µM,[3]; [5],86%
same,remaining activity at 1 µM,[4]; [5],100%
CCN1CCN(Cc2ccc(NC(=O)c3ccc(C)c(CCc4cnc5[nH]ccc5c4OC)c3)cc2C(F)(F)F)CC1 [HYJ-2-002-1],remaining activity at 1 µM,[1]; [7],0.7%
same,remaining activity at 1 µM,[2]; [7],34%
same,remaining activity at 1 µM,RIPK1; [8],8.2%
same,remaining activity at 1 µM,OSR1; [8],93%
same,remaining activity at 1 µM,TLK2; [8],97%
same,remaining activity at 1 µM,PRKR; [8],75%
same,remaining activity at 1 µM,YANK1; [8],100%
same,remaining activity at 1 µM,PRKCD; [8],78%
same,remaining activity at 1 µM,PIK3C2B; [8],100%
same,remaining activity at 1 µM,PAK6; [8],100%
same,remaining activity at 1 µM,SRPK3; [8],90%
same,remaining activity at 1 µM,NIM1; [8],100%
same,remaining activity at 1 µM,RIOK2; [8],35%
same,remaining activity at 1 µM,PAK4; [8],99%
same,remaining activity at 1 µM,TGFBR2; [8],41%
same,remaining activity at 1 µM,TYRO3; [8],40%
same,remaining activity at 1 µM,SRMS; [8],8.4%
same,remaining activity at 1 µM,TNIK; [8],11%
same,remaining activity at 1 µM,PHKG1; [8],100%
same,remaining activity at 1 µM,S6K1; [8],55%
same,remaining activity at 1 µM,RET(M918T); [8],0.95%
same,remaining activity at 1 µM,NEK4; [8],57%
same,remaining activity at 1 µM,TNNI3K; [8],6.6%
same,remaining activity at 1 µM,RIPK4; [8],100%
same,remaining activity at 1 µM,PAK7; [8],92%
same,remaining activity at 1 µM,WEE1; [8],100%
same,remaining activity at 1 µM,PHKG2; [8],73%
same,remaining activity at 1 µM,[3]; [7],0.85%
same,remaining activity at 1 µM,[4]; [7],1%
